Laboratory results published in patent US20230116399A1, “Tumor Homing Statin Derivatives” (Da Zen Theranostics, Inc., priority 2019, published 2023).
Values belong to the molecule of their own block, whether it stands above or below them.

Key:
[1] = test system: L858R/T790M vs wild-type EGFR; details: inhibiting phosphorylation of EGFR; cited from earlier work
[2] = Stability of conjugates in mouse blood serum at 37° C. for 3 hours (LC-MS/MS); format: in vitro ADME; details: for amount of conjugate at 3 h (value at time 0 is 100) / degradation/release of the statin from the conjugate: mouse blood serum, 37° C., 3 h; for stability when exposed to serum: serum at body temperature for at least 3 hours
Method: Comparative example 1A-V: Synthesis of DZ1-SIM rapid release ester (RRE) and comparison of stability to an ELSD (here: DZ1-SIM). A rapid release ester (RRE) is synthesized as described below, linking DZ1 to Simvastatin (DZ1-SIM RRE or “DZ2c”, compound 8) and is tested in comparison to the ELSD (here: DZ1-SIM or “DZ2b”, compound 14, synthesized as described above). Both compounds are incubated in mouse blood serum at 37° C. for 3 hours, after which samples are taken and tested for degradation of the conjugates by testing for the unconjugated statin as described in example 6 herein-below (LC-MS/MS-025 with positive ion, ESI, MRM detection and HPLC). […] The value at time 0 for each of the samples is 100.

22RV1 (PC) = assay: MTT cell viability, 22RV1; format: cell-based, human
Method: (§1) Cell culture: In the following examples, unless otherwise specified, all cell lines are purchased from American Type Culture Collection and cultured in American Type Culture Collection (ATCC)-recommended media, with fetal bovine serum (FBS) to a final concentration of 10% and 1×penicillin/streptomycin at 37° C. with 5% CO2 in a cell culture incubator, unless otherwise specified. Unless otherwise specified, culture is 2D. Where culture is 3D, low attachment plates are used, with the same media. C4-2B (parental cell line and drug-resistant cells derived therefrom) are cultured in RPMI-1640 with 10% FBS. MDVR cells (an Enzalutamide-resistant variety of C4-2B prostate cancer cells formed as described in Example 4 below) are cultured as indicated for the parental C4-2B cells. 22RV1 Prostate Cancer (PC) cells (ATCC® CRL-2505™, a human prostate carcinoma cell line of epithelial morphology) are cultured in RPMI-1640 with 10% FBS. A549 cells (ATCC® CCL-185™, a human lung carcinoma cell line of epithelial morphology) are cultured in F-12K medium with 10% FBS. A549/DDP cells (Cells were described in DOI: 10.3892/mmr.2014.2163 and in doi: 10.7150/jca.19426; cisplatin resistant cells may be established from exposing parental A549 cells to cisplatin for an extended time). MDR A549/cisplatin lung adenocarcinoma cell line, drug resistant) are cultured in F-12K medium with 10% FBS. H1975 cells (ATCC® CRL-5908™, a human adenocarcinoma non-small cell lung cancer cell line of epithelial morphology) are cultured in RPMI-1640 medium with 10% FBS; H1975 cells are a cell model for human lung cancer that is resistant to Gefitinib (an EGFR inhibitor drug used for treatment of certain breast, lung and other cancers). H1650 cells (ATCC® CRL-5883™, a adenocarcinoma/bronchoalveolar carcinoma lung cancer cell line of epithelial morphology) are cultured in RPMI-1640 medium with 10% FBS. […]
(§2) […] For each cell line, the IC50 is determined for each drug, i.e. the ELSD, the ALSD, and for the corresponding unconjugated statin (Simvastatin), in concentrations from 0.1-100 μM. […]

EZ-resistant C4-2B (PC) = assay: MTT cell viability, EZ-resistant C4-2B (MDVR); format: cell-based; details: Homo sapiens, 48 h / 24 hours, relative IC50
Method: as §1, with “FBS.” for “FBS. H1975 cells (ATCC® CRL-5908™, a human adenocarcinoma non-small cell lung cancer cell line of epithelial morphology) are cultured in RPMI-1640 medium with 10% FBS; H1975 cells are a cell model for human lung cancer that is resistant to Gefitinib (an EGFR inhibitor drug used for treatment of certain breast, lung and other cancers). H1650 cells (ATCC® CRL-5883™, a adenocarcinoma/bronchoalveolar carcinoma lung cancer cell line of epithelial morphology) are cultured in RPMI-1640 medium with 10% FBS.”

PC3 (PC) = assay: MTT cell viability, PC3; format: cell-based; details: Homo sapiens, 48 h / 24 hours, relative IC50
Method: as §1, with “FBS.” for “FBS. H1975 cells (ATCC® CRL-5908™, a human adenocarcinoma non-small cell lung cancer cell line of epithelial morphology) are cultured in RPMI-1640 medium with 10% FBS; H1975 cells are a cell model for human lung cancer that is resistant to Gefitinib (an EGFR inhibitor drug used for treatment of certain breast, lung and other cancers). H1650 cells (ATCC® CRL-5883™, a adenocarcinoma/bronchoalveolar carcinoma lung cancer cell line of epithelial morphology) are cultured in RPMI-1640 medium with 10% FBS.”

A549 (LC) = assay: MTT cell viability, A549; format: cell-based, human; details: Homo sapiens, 48 h / 24 hours, relative IC50
Method: as §1

A549DDP (LC) = assay: MTT cell viability, A549DDP; format: cell-based, human; details: Homo sapiens, A549/DDP, 48 h / 24 hours, relative IC50
Method: as §1, §2

H1975 (LC) = assay: MTT cell viability, H1975; format: cell-based, human; details: Homo sapiens, NCI-H1975, 48 h / 24 hours, relative IC50
Method: as §1

H1650 (LC) = assay: MTT cell viability, H1650; format: cell-based, human; details: Homo sapiens, NCI-H1650, 48 h / 24 hours, relative IC50
Method: as §1

PC9 (LC) = assay: MTT cell viability, PC9; format: cell-based, human; details: Homo sapiens, 48 h / 24 hours, relative IC50
Method: as §1

H446 (LC) = assay: MTT cell viability, H446; format: cell-based, human; details: Homo sapiens, NCI-H446, 48 h / 24 hours, relative IC50
Method: as §1

human cancer cell lines = assay: MTT cell viability, summary over the cancer cell lines; format: cell-based; details: summary of the table of IC50, read-out: range of IC50 over the cancer cell lines
Method: Example 7: The experiment is performed by cell assay essentially as described above in example 4. […]
The cell lines are cultured according to the protocols as described above, then each of the cell lines are treated for 48 h either with an ELSD (here of formula FId, “DZ2b” or compound 14) or with an ALSD (here of formula FIId, “DZ2a” or compound 7). For each cell line, the IC50 is determined for each drug, i.e. the ELSD, the ALSD, and for the corresponding unconjugated statin (Simvastatin), in concentrations from 0.1-100 μM.
In the controls (not shown in the figures), the cells are exposed to DMSO (vehicle) for a final concentration that equals the highest concentration of the drug tested, to a maximum concentration less than 0.1% v/v. […] The absorbance density of the supernatant is read on a 96-well microplate reader at wavelength 595 nm.

[3] = test system: 22Rv1 human prostate carcinoma tumors; assay: Tumor volume of 22Rv1 tumors grown subcutaneously in mice; format: in vivo; details: 8 mg/kg, intravenously injected
Method: Example 1D: 22Rv1 human prostate carcinoma cells are cultured as described above, separated from the medium, resuspended in 50% phosphate buffered saline (PBS) and 50% BD Matrigel™ (BD Biosciences, CA), and then the re-suspended cells are injected and grown subcutaneously in mice. […] The decrease of the THSD in the tumors at 2 and 4 weeks, respectively, as determined by NIR signal, is less than about 30%.
Example 1E: 22Rv1 human prostate carcinoma cells are cultured, injected and grown subcutaneously in mice as described above in example 1D. Tumor volume is monitored by measuring the size by caliper and calculating volume as described in example 9 below. The mice are intravenously injected with the following: ALSD of formula FIId, “DZ2a”, compound 7, the corresponding unconjugated dye (here: DZ1), unconjugated Simvastatin, a statin drug (SIM), and docetaxel (DOC), a cancer drug, and a mixture of the ALSD with DOC. Each active was administered in an amount of 5 mg/kg for the ALSD, DZ1, and SIM, except, in case of DOC, 8 mg/kg. A slower rate of increased tumor volume indicates tumor suppressive activity.

[4] = test system: RhoA/B in H-1975 human lung cancer tumors; assay: RhoA/B membrane staining of tumor tissue, H-1975 mouse model; format: in vivo, mice; details: 20 mg/kg
Method: RhoA/RhoB membrane staining of tumor tissue of a H-1975 human lung cancer cell mouse model is performed as described below, and the tumor-bearing mice are treated with a THSD (here an ALSD of formula FIId, “DZ2a”, compound 7) in comparison to the corresponding unconjugated dye (“DZ1”) and to Gefinitib (an EGFR inhibitor drug used for treatment of certain breast, lung and other cancers).
H-1975 cells, a cell model for human lung cancer that is resistant to Gefitinib (an EGFR inhibitor drug used for treatment of certain breast, lung and other cancers) are cultured as described above and injected subcutaneously into mice to develop tumors. The mice and the tumors that are formed are systemically exposed to an ALSD (here of formula FIId, “DZ2a”, compound 7) by intravenous injection. The tumor-bearing mice are treated with either Gefitinib (20 mg/kg), or with an ALSD (here of formula FIId, “DZ2a”, compound 7, 5 mg/kg), an unconjugated dye of formula III (“DZ1”, 5 mg/kg) or a combination of the ALSD with Gefitinib.
For immunostaining of tumor tissue, the animals are sacrificed by prescribed and approved euthanasia techniques. Tumor tissue (maximum thickness 3 mm) is sliced, formalin fixated, embedded into paraffin blocks which are sectioned and processed into paraffin section slides. […]

SMILES: C=CC(=O)Nc1cc(Nc2nccc(-c3cn(C)c4ccccc34)n2)c(OC)cc1N(C)CCN(C)C [AZD9291, Osimertinib]
greater potency against L858R/T790M than wild-type EGFR [1]: 100-200 times

amount of conjugate at 3 h (value at time 0 is 100) [2]: 100
degradation/release of the statin from the conjugate [2]: no degradation/release
stability when exposed to serum [2]: stable and not subject to degradation
IC50 (22RV1 (PC); 22RV1, treated for 48 h /, relative IC50, listed as ELSD): 7.8 µM
IC50 (22RV1 (PC); Homo sapiens, 22Rv1, 22RV1, treated for 48 h /, relative IC50): 10.8 µM
IC50 (PC3 (PC)): 6 µM
IC50 (A549 (LC)): 5.4 µM
IC50 (A549DDP (LC)): 2.1 µM
IC50 (H1975 (LC)): 6.4 µM
IC50 (H1650 (LC)): 11.8 µM
IC50 (PC9 (LC)): 5.6 µM
IC50 (H446 (LC)): 3.4 µM
IC50 (human cancer cell lines): 2 to 12 µM
SMILES: CCC(C)(C)C(=O)O[C@H]1C[C@@H](C)C=C2C=C[C@H](C)[C@H](CC[C@@H](O)C[C@@H](O)CC(=O)OCCNC(=O)CCCCCN3/C(=C/C=C4\CCCC(/C=C/C5=[N+](CCCCS(=O)(=O)O)c6ccccc6C5(C)C)=C4Cl)C(C)(C)c4ccccc43)[C@H]21 [DZ2b]
IC50 (EZ-resistant C4-2B (PC)): 3.8 µM

amount of conjugate at 3 h (value at time 0 is 100) [2]: 10
degradation/release of the statin from the conjugate [2]: 90%
stability when exposed to serum [2]: less stable and more easily degrades
SMILES: CCC(C)(C)C(=O)O[C@H]1C[C@@H](C)C=C2C=C[C@H](C)[C@H](CC[C@@H]3C[C@@H](OC(=O)CCCCCN4/C(=C/C=C5\CCCC(/C=C/C6=[N+](CCCCS(=O)(=O)[O-])c7ccccc7C6(C)C)=C5Cl)C(C)(C)c5ccccc54)CC(=O)O3)[C@H]21 [DZ2c]

SMILES: CC(=O)O[C@@]12CO[C@@H]1C[C@H](O)[C@@]1(C)C(=O)[C@H](O)C3=C(C)[C@@H](OC(=O)[C@H](O)[C@@H](NC(=O)OC(C)(C)C)c4ccccc4)C[C@@](O)([C@@H](OC(=O)c4ccccc4)[C@H]21)C3(C)C [Docetaxel]
tumor suppressive activity (tumor volume increase) [3]: no or very mild tumor suppressive activity
tumor suppressive activity (tumor volume increase) ([3]; listed as DOC): no significant tumor suppressive activity

SMILES: COc1cc2ncnc(Nc3ccc(F)c(Cl)c3)c2cc1OCCCN1CCOCC1 [Gefitinib]
RhoA/B staining of tumor cell membranes [4]: staining persists in the membranes
